Source: US20260069693A1, “UROLITHINS AND T-CELL MEDIATED IMMUNE RESPONSE” (priority 2022, published 2026)

Test system: OT-1 T cells
Assay: adoptive transfer of UA-treated OT-1 T cells, engraftment
Format: in vivo, Rag1^−/− mice
Conditions: seven days after transfer of T cells stimulated 48 h with UA (25 μM) vs DMSO
Text: Adoptive cell transfer (ACT) represents the infusion of antigen-specific leukocytes with direct antitumor activity, yet identification, selection and expansion of lymphocyte subsets harboring optimal antitumor qualities remains one of the most crucial challenges (Rosenberg and Restifo, 2015). ACT benefits especially from minimally differentiated cells due to their improved survival and long-term potential to generate unexhausted effector cells (Luca Gattinoni et al; Mo et al., 2021; Roberto et al., 2015). In particular, CD8^+ T cells restricted in a stem-like state have been associated with enhanced tumor suppressive properties upon adoptive cell transfer (Enrico Lugli et al; Verma et al., 2021). […] The inventors cultured T cells from OT-1 donor mice (FIG. 3A) for 48 hours in the presence of UA or vehicle control, followed by adoptive transfer into immunodeficient Rag1^−/− mice. […] Moreover, consistent with an improved memory response, animals receiving UA-pretreated T cells contained less Tim3^HiPD1^Hi terminally exhausted CD8^+ T cells in the TME (FIG. 3I). Thus, UA augments immune-mediated antitumor memory upon adoptive cell transfer.
For adoptive cell transfer transfer, purified splenic T cell from OT1 mice were isolated and activated using aCD3/aCD28 stimulation beads for 48 h. […] Tumor growth was assessed as described above. […]

Q: `O=c1oc2cc(O)ccc2c2ccc(O)cc12` [UA, Urolithin A] was tested. Which “number of engrafted (splenic) CD8+ T cells” value did it give?
A: significantly higher
